Results reported in patent US11821027B2, “Epigenetic analysis of cell therapy and related methods” (Juno Therapeutics, Inc., priority 2017, dated 2023).

Assays:
[1] = system: Anti-BCMA CAR-expressing T cells; test: RNA-seq gene expression in stimulated anti-BCMA CAR T cells in the presence or absence of lenalidomide; format: cell-based
Procedure: (§1) Anti-BCMA CAR-expressing T cells, generated from four (4) different independent donors, were stimulated with 50 μg/mL BCMA-conjugated beads for 24 hours (24 hr+stim) or 7 days (d7+stim), or cultured without stimulation for 24 hours (24 hr), in the presence or absence of lenalidomide. The CAR-expressing cells were assessed by RNA sequencing (RNA-seq) for gene expression and assayed for transposase-accessible chromatin using sequencing (ATAC-seq) for chromatin accessibility analysis.
(§2) RNA-seq was performed on the complementary DNA (cDNA) samples prepared from the RNA isolated from the cultured anti-BCMA CAR-expressing cells. ATAC-seq was performed generally as described in Buenrostro et al., Nat Methods. (2013) 10(12): 1213-1218. […]
(§3) Principal component analysis (PCA) was performed for the RNA-seq and ATAC-seq data sets, generated from DESeq2-normalized counts. Differential expression (DE, for RNA-seq) or consensus peak accessibility (DA, for ATAC-seq) were calculated, modeling donor effects (Donors 1-4) and treatment effects (lenalidomide vs. vehicle) at 24 hours and day 7. […] Gene ontology (GO) enrichment analysis was performed and activation z-score was determined on the subset of genes differentially expressed at q≤0.1 using Ingenuity Pathway Analysis software (Qiagen, Inc.), accounting for donor effects within each treatment condition.

[2] = system: Anti-BCMA CAR-expressing T cells; test: ATAC-seq chromatin accessibility in stimulated anti-BCMA CAR T cells in the presence or absence of lenalidomide; format: cell-based
Procedure: as §1, §2, §3

SMILES: Nc1cccc2c1CN(C1CCC(=O)NC1=O)C2=O (stereo not shown) [lenalidomide]
- effect on biological signaling pathways (differentially expressed genes) ([1]; 24 hours or 7 days with stimulation, Ingenuity Pathway Analysis): increased expression of genes involved in T cell activation and signaling
- total genes altered as shown by gene expression changes ([1]; 7 days of culture with BCMA-conjugated bead stimulation, lenalidomide vs. vehicle, 4 donors, cut off q≤0.05 and log 2 fold change≥0.5): 583 genes
- chromatin accessibility peaks changed ([2]; 7 days of culture with BCMA-conjugated bead stimulation, lenalidomide vs. vehicle, 4 donors, cut off q≤0.1): 2804 peaks
- motif enrichment analysis of peaks (transcription factor binding motifs of T cell activation and signaling) ([2]; day 7 cultures with stimulation, HOMER, consensus peakset as background): enriched in peaks with increased accessibility
